pIC50: −log10 of the molar value. Structures can show the parent of a compound that is named as a salt. Bounds are passed on as bounds.

In the assay the target is T1, human CGT (ceramide galactosyltransferase), CHO/CGT lysate (Homo sapiens, UniProt Q16880).
T1 construct: Full-length human CGT cDNA was cloned into the BamH1/Xho1 site of pcDNA3.1 (+); expressed in transfected cells; host or cells: Chinese hamster ovary (CHO) cells; lysate prepared with M-PER
T1 sequence (Q16880 21-541): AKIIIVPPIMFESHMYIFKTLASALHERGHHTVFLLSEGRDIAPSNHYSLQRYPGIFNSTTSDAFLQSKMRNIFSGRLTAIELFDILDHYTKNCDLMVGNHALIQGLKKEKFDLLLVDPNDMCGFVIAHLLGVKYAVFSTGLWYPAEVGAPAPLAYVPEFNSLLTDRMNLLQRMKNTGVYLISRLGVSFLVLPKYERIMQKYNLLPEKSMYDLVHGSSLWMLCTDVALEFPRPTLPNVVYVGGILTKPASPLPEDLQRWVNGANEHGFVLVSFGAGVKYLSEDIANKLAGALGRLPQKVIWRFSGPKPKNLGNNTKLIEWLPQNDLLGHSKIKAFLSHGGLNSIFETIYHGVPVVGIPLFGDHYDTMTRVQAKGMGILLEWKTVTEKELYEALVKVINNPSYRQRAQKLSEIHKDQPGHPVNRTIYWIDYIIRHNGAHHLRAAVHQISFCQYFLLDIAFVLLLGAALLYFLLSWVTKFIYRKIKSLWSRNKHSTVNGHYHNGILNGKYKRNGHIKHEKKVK
The assay can be described thus: CGT enzyme assay, RapidFire/MS/MS readout (Table 1 ranges with one asterisk *). The format is biochemical. As to conditions: RapidFire method (range with one asterisk *). As for the experimental part: Full-length human CGT cDNA was cloned into the BamH1/Xho1 site of pcDNA3.1 (+) mammalian expression vector (V90-20, Invitrogen, Carlsbad, Calif.) and the plasmid was transfected into Chinese hamster ovary (CHO) cells. Lysate was prepared using M-PER (Mammalian Protein Extraction Reagent, ThermoFisher Scientific, Grand Island, N.Y.) in the presence of a protease inhibitor cocktail (P8340, Sigma, Saint Louis, Mo.). Each 100 mm dish (100% confluent, approximately 1×10^7 cells) was lysed with 250 μL of M-PER containing protease inhibitors. Protein concentration was determined using a Pierce BCA protein assay kit (ThermoFisher Scientific). Four micrograms of CHO/CGT lysate was incubated with various concentrations of a compound (0.001 μM-50 μM) in 10 mM HEPES (pH 7.2) containing 35 μM dioleoylphosphatidylcholine, 5 mM MgCl2, 5 mM MnCl2, 1% BSA, 15 mM KCl, 1 mM EGTA, 8 mM CHAPS, 10 μM C6-NBD-dihydro-ceramide and 17.5 μM UDP-galactose in a final reaction volume of 20 μL at 37° C. for 1 hour. The final concentration of DMSO was 0.5% in both compound-treated and mock-treated samples. Tween 80 (0.01%) was optionally added to the reaction mixture to help solubilize the compounds. Each individual reaction was diluted with 80 μL of methanol:acetronitrile (1:3) containing 5 μM N-docdecanoyl-NBD-galactosylceramide (internal standard) to stop the reaction. 200 μL H2O:acetonitile (1:1) was added to precipitate the protein. After sufficient mixing, the plates were centrifuged at 2469 g for 38 minutes, 200 μL of supernatant was transferred to a LC/MS 96-deep well plate and a second spin was performed at 2469 g for 10 minutes. The final supernatant was injected in triplicate for RapidFire/MS/MS analysis.
Quantitative Analysis Using the RapidFire/MS/MS Method:
The quantitative analysis of C6-NBD-dihydro-ceramide and C6-NBD-dihydro-galactosylceramide was performed on a Rapid Fire 360 high-throughput mass spectrometry system (Agilent Technologies, Palo Alto, Calif.) coupled with a API4000^+ triple quadrupole mass spectrometer (Applied Biosystems, Concord, Ontario, Canada). RapidFire software packages, including RapidFire Control panel, RapidFire UI and RapidFire Integrator (Agilent Technologies), were used to control the RapidFire instrument and to process data. Analyst 1.6.2 software packages (Applied Biosystems) were used to control the MS system and acquire MS data. […] of sample was loaded on a micro-scale C4 solid-phase extraction (SPE) cartridge (Agilent Technologies) and salts were removed using water supplemented with 0.1% formic acid at the flow rate of 1.5 mL/min for 3 sec. C6-NBD-dihydro-ceramide and C6-NBD-dihydro-galactosylceramide were co-eluted into the mass spectrometer using acetonitrile containing 0.1% formic acid at the flow rate of 1.0 mL/min for 3 sec. The total cycle time of one injection was 8 secs. The MS/MS detection was performed in ESI negative mode. The mass transition of C6-NBD-dihydro-galactosylceramide was m/z 752.6→678.6 using a −40 V collision energy, the mass transition of C6-NBD-dihydro-ceramide was m/z 590.6→115.8 using a −40 V collision energy and the mass transition of N-docdecanoyl-NBD-galactosylceramide was m/z 820.9→746.3 using a −45 V collision energy.
The C6-NBD-dihydro-galactosylceramide reading was normalized first by dividing the peak area of C6-NBD-dihydro-galactosylceramide by the peak area of the internal standard, N-docdecanoyl-NBD-galactosylceramide. IC50 values (see Table 1, where data ranges with one asterix (*) correspond to analysis using the RapidFire/MS/MS method, and data ranges with two asterixes (**) correspond to analysis using the RapidFire/MS/MS method with 0.01% Tween added) were generated from sigmoidal dose-response curves (variable slope) with GraphPad Prism software (GraphPad Software, Inc., San Diego, Calif.) using the normalized peak areas of C6-NBD-dihydro-galactosylceramide or the percent inhibition of C6-NBD-dihydro-galactosylceramide accumulation relative to DMSO control. […]
As a reminder, the pIC50 is the negative decadic logarithm of the IC50, by convention in mol/L. Low values mean a large IC50, high ones a small IC50. On to `NC1CCN(C(=O)[C@H](NS(=O)(=O)c2ccc3cc(OC4CCCC4)ccc3c2)C(F)(F)c2ccc(Br)cc2)CC1` [Compound 32-2, (S)—N-(3-(4-aminopiperidin-1-yl)-1-(4-bromophenyl)-1,1-difluoro-3-oxopropan-2-yl)-6-(cyclopentyloxy)naphthalene-2-sulfonamide trifluoroacetate], for which the pIC50 is 4.52 to 5.00. The molecule `NC1CC2CCC(C1)N2C(=O)[C@@H](NS(=O)(=O)c1ccc2cc(OC3CCCCC3)ccc2c1)C(F)(F)c1ccc(Br)cc1` (stereo partly drawn) [Compound 33-1, N-((2R)-3-(3-amino-8-azabicyclo[3.2.1]octan-8-yl)-1-(4-bromophenyl)-1,1-difluoro-3-oxopropan-2-yl)-6-(cyclohexyloxy)naphthalene-2-sulfonamide trifluoroacetate] had a negative-log IC50 (pIC50) of more than 6.00.

`NC1CC2CCC(C1)N2C(=O)[C@H](NS(=O)(=O)c1ccc2cc(OC3CCCCC3)ccc2c1)C(F)(F)c1ccc(Br)cc1` (stereo partly drawn) [Compound 33-2, N-((2S)-3-(3-amino-8-azabicyclo[3.2.1]octan-8-yl)-1-(4-bromophenyl)-1,1-difluoro-3-oxopropan-2-yl)-6-(cyclohexyloxy)naphthalene-2-sulfonamide trifluoroacetate]: the pIC50 is 4.00 to 4.52. For `CN([C@H](C(=O)N1C2CCC1CC(N)C2)C(F)(F)c1ccc(Br)cc1)S(=O)(=O)c1ccc2cc(OC3CCCC3)ccc2c1` (stereo partly drawn) [Compound 34-1, N-((2R)-3-(3-amino-8-azabicyclo[3.2.1]octan-8-yl)-1-(4-bromophenyl)-1,1-difluoro-3-oxopropan-2-yl)-6-(cyclopentyloxy)-N-methylnaphthalene-2-sulfonamide trifluoroacetate], the pIC50 is more than 6.00. The molecule `CN([C@@H](C(=O)N1C2CCC1CC(N)C2)C(F)(F)c1ccc(Br)cc1)S(=O)(=O)c1ccc2cc(OC3CCCC3)ccc2c1` (stereo partly drawn) [Compound 34-2, N-((2S)-3-(3-amino-8-azabicyclo[3.2.1]octan-8-yl)-1-(4-bromophenyl)-1,1-difluoro-3-oxopropan-2-yl)-6-(cyclopentyloxy)-N-methylnaphthalene-2-sulfonamide trifluoroacetate] showed a negative logarithm of the IC50 (pIC50) of 4.00 to 4.52. Next, `NC1CC2CCC(C1)N2C(=O)[C@@H](NS(=O)(=O)c1ccc(OCC2CCCCC2)cc1)C(F)(F)c1ccc(-c2ccccc2)cc1` (stereo partly drawn) [Compound 35-1, N-((2R)-1-([1,1′-biphenyl]-4-yl)-3-(3-amino-8-azabicyclo[3.2.1]octan-8-yl)-1,1-difluoro-3-oxopropan-2-yl)-4-(cyclohexylmethoxy)benzenesulfonamide trifluoroacetate]: more than 6.00; `NC1CC2CCC(C1)N2C(=O)[C@H](NS(=O)(=O)c1ccc(OCC2CCCCC2)cc1)C(F)(F)c1ccc(-c2ccccc2)cc1` (stereo partly drawn) [Compound 35-2, N-((2S)-1-([1,1′-biphenyl]-4-yl)-3-(3-amino-8-azabicyclo[3.2.1]octan-8-yl)-1,1-difluoro-3-oxopropan-2-yl)-4-(cyclohexylmethoxy) benzenesulfonamide trifluoroacetate]: 4.52 to 5.00. As for `NC1CC2CCC(C1)N2C(=O)[C@@H](NS(=O)(=O)c1ccc2cc(OC3CCCC3)ccc2c1)C(F)(F)c1ccc(-c2ccccc2)cc1` (stereo partly drawn) [Compound 36-1, N-((2R)-1-([1,1′-biphenyl]-4-yl)-3-(3-amino-8-azabicyclo[3.2.1]octan-8-yl)-1,1-difluoro-3-oxopropan-2-yl)-6-(cyclopentyloxy)naphthalene-2-sulfonamide trifluoroacetate], the figure is more than 6.00; as for `NC1CC2CCC(C1)N2C(=O)[C@H](NS(=O)(=O)c1ccc2cc(OC3CCCC3)ccc2c1)C(F)(F)c1ccc(-c2ccccc2)cc1` (stereo partly drawn) [Compound 36-2, N-((2S)-1-([1,1′-biphenyl]-4-yl)-3-(3-amino-8-azabicyclo[3.2.1]octan-8-yl)-1,1-difluoro-3-oxopropan-2-yl)-6-(cyclopentyloxy)naphthalene-2-sulfonamide trifluoroacetate], 5.00 to 6.00. `CN([C@H](C(=O)N1C2CCC1CC(N)C2)C(F)(F)c1ccc(Br)cc1)S(=O)(=O)c1ccc2cc(OC3CCCCC3)ccc2c1` (stereo partly drawn) [Compound 37-1, N-((2R)-3-(3-amino-8-azabicyclo[3.2.1]octan-8-yl)-1-(4-bromophenyl)-1,1-difluoro-3-oxopropan-2-yl)-6-(cyclohexyloxy)-N-methylnaphthalene-2-sulfonamide trifluoroacetate] showed a pIC50 of more than 6.00. As for `CN([C@@H](C(=O)N1C2CCC1CC(N)C2)C(F)(F)c1ccc(Br)cc1)S(=O)(=O)c1ccc2cc(OC3CCCCC3)ccc2c1` (stereo partly drawn) [Compound 37-2, N-((2S)-3-(3-amino-8-azabicyclo[3.2.1]octan-8-yl)-1-(4-bromophenyl)-1,1-difluoro-3-oxopropan-2-yl)-6-(cyclohexyloxy)-N-methylnaphthalene-2-sulfonamide trifluoroacetate], the figure is 4.00 to 4.52. With `NC1CC2CCC(C1)N2C(=O)[C@@H](NS(=O)(=O)c1ccc2cc(OC3CCCC3)ccc2c1)C(F)(F)c1ccc2cc(Br)ccc2c1` (stereo partly drawn) [Compound 38-1, N-((2R)-3-(3-amino-8-azabicyclo[3.2.1]octan-8-yl)-1-(6-bromonaphthalen-2-yl)-1,1-difluoro-3-oxopropan-2-yl)-6-(cyclopentyloxy) naphthalene-2-sulfonamide trifluoroacetate], the negative-log IC50 (pIC50) was 5.00 to 6.00.

Regarding `NC1CC2CCC(C1)N2C(=O)[C@H](NS(=O)(=O)c1ccc2cc(OC3CCCC3)ccc2c1)C(F)(F)c1ccc2cc(Br)ccc2c1` (stereo partly drawn) [Compound 38-2, N-((2S)-3-(3-amino-8-azabicyclo[3.2.1]octan-8-yl)-1-(6-bromonaphthalen-2-yl)-1,1-difluoro-3-oxopropan-2-yl)-6-(cyclopentyloxy)naphthalene-2-sulfonamide trifluoroacetate], the pIC50 is 5.00 to 6.00. For `NC1CC2CCC(C1)N2C(=O)[C@@H](NS(=O)(=O)c1ccc(OCC2CCCC2)cc1)C(F)(F)c1ccc2cc(Br)ccc2c1` (stereo partly drawn) [Compound 39-1, N-((2R)-3-(3-amino-8-azabicyclo[3.2.1]octan-8-yl)-1-(6-bromonaphthalen-2-yl)-1,1-difluoro-3-oxopropan-2-yl)-4-(cyclopentylmethoxy) benzenesulfonamide trifluoroacetate], the pIC50 is 5.00 to 6.00. As for `NC1CC2CCC(C1)N2C(=O)[C@H](NS(=O)(=O)c1ccc(OCC2CCCC2)cc1)C(F)(F)c1ccc2cc(Br)ccc2c1` (stereo partly drawn) [Compound 39-2, N-((2S)-3-(3-amino-8-azabicyclo[3.2.1]octan-8-yl)-1-(6-bromonaphthalen-2-yl)-1,1-difluoro-3-oxopropan-2-yl)-4-(cyclopentylmethoxy)benzenesulfonamide trifluoroacetate], the figure is 4.52 to 5.00.

The values are drawn from patent US20190322676A1, “CERAMIDE GALACTOSYLTRANSFERASE INHIBITORS FOR THE TREATMENT OF DISEASE” (BioMarin Pharmaceutical Inc., priority 2016, published 2019).
